Measured values from patent publication US8937096B2, “Use of benzo-fused heterocyle sulfamide derivatives for the treatment of mania and bipolar disorder” (priority 2005, dated 2015).
Like-named read-outs stand apart in the source and are kept apart here.

Tests used:
Sprague Dawley rats = assay: Forced Swim Test (Acute); format: in vivo, rat
Procedure: The Forced Swim test (FST) is a commonly used procedure to screen compounds for possible antidepressant properties. This test is also known as the behavioral despair test. Rodents placed in […] tanks filled with water present a wide variety of escape or immobility behaviors. Antidepressant drugs from different classes markedly increase escape behaviors and/or decrease latency or duration of immobility.
Venlafaxine and desipramine were dissolved in water. All drugs and their vehicles were administered orally (p.o.) by gavage in a volume of 5 mL/kg.
Male Sprague Dawley rats (140 to 160 g) from Charles River Laboratories Wilmington, Mass. were used. The animals went through a five-day quarantine period before being subjected to the experimental procedure.
Animals were housed in groups of four in plastic cages at an ambient temperature of 21° C. to 23° C. with an automated 12 hour light/dark cycle and access to water and commercial rodent food ad libitum. Animals were not handled more than for the routine bedding change prior to pre-test swim session.
Each experiment consisted of seven treatment groups with n=4 animals per group. A total of 28 animals per experiment were used. Two consecutive experiments (1 and 2, 3 and 4, and 5 and 6) were exact replicas of each other. […] One treatment group of n=4 animals in each experiment was a vehicle treated group. […] In experiments 5 and 6 the effects of venlafaxine and maprotyline at 12 mg/kg, 30 mg/kg, and 60 mg/kg were tested.
The basic apparatus consisted of a cylinder (46 cm tall×˜20 cm diameter) filled with water to 30 cm deep, at a temperature of 25±1° C. The automated version of the FST was used to perform the experiments. Plumbing for automatic filling and emptying water connected the four cylinders. Cylinders were placed in the dividing chambers 25 cm wide to separate animals visually. Each 5-minute experimental session was videotaped and analyzed in real time by computer software (Clever Systems, Inc.) for four animals at a time. The immobility, swimming, climbing and escape times were recorded by the software. The four activities are defined as follow. Immobility: the animal floats motionlessly or makes only those movements necessary to keep its head above water; Climb: the animal vigorously moves vertically while scratching the wall around the cylinder; Swim: the animal moves horizontally around in the cylinder more than necessary to keep its head above water; and Escape: sum of all vigorous active movements.
The ability of a test compound to decrease the duration or frequency of immobility, or changes in swimming, climbing and escape times, was measured using the FST procedure described above. […] The analysis of the results in the studies described was focused on the immobility time during 5-minute test session.
There were two swim sessions in each experiment. First, a pre-test swim session for 15 minutes was performed. Following 48 hours later was a test session of 5-minute duration. Upon completion of a swim session, each animal was placed under a heat lamp in a cage with soft bedding for approximately 15 minutes to prevent hypothermia.
Animals were pre-treated with a vehicle or test compound after completing the pre-test swim session, then 24 hours later and then shortly prior to the 5-minute test session; i.e., three injections were given to each animal between the two swim sessions that occurred on 3 consecutive days.
(§1) Data were analyzed using GraphPad Prism software (GraphPad Software, Inc. San Diego, Calif.). For the comparison of the effect of different doses for various drugs on immobility in the FST one-way ANOVA was used followed by Dunnett's multiple comparison test. […] The ED50 and Emax values were statistically compared using two-tail t-test.

CH3/HeJ mice = assay: Tail Suspension Test (Acute); format: in vivo, mouse; details: for Immobility Emax % of C / Mobility Emax % of C: p.o., CH3/HeJ mice, 7-min session; for ED50: Mus musculus, po, 7 min
Procedure: In the tail suspension test (TST) for evaluating compounds for anti-depressant activity, mice are suspended by their tails to a metal or plastic rod using clip or scotch tape. The test is usually quite short, 5-7 min, and the amount of time the mice spend immobile is recorded either manually or with an automated device. Agents which have antidepressant activity, decrease the duration of immobility of mice in this test.
The basic apparatus for the tail suspension assay consisted of a yellow plastic chamber (91×45×10 cm) divided for four arenas 25, 20, 20 and 25 cm wide separated by yellow plastic walls 0.75 cm thick. Mice were suspended by their tails using a rubber clip (7 cm long) attached to the plastic rod that was placed on the top of a testing chamber half way through its deep dimension. Each experimental session was videotaped and analyzed for four animals in the real time by computer software (“Depression Scan” Clever Sys Inc.). The computer justification of immobility was calibrated with the use of animals dosed with lorazepam while justification of movement was calibrated with the high dose of desipramine treated animals. […] The settings were adjusted separately for dark (CH3/HeJ and C57BI/6J strains) and white mice (Balb/cJ and A/J strains). A yellow background was used for dark mice and a blue background was used to record movements of white mice.
The ability of a test compound to decrease the duration of immobility, or increase mobility was measured using the TST procedure described above.
as §1, with “TST” for “FST”, “analyses of variance (ANOVA) were” for “ANOVA was”, “were” for “were statistically”, “two-way ANOVA and Bonferroni post-hoc test.” for “two-tail t-test.”
Positive controls included duloxetine (DLX), venlafaxine (VLX) and desipramine (DMI) which were dissolved in 0.5% methylcellulose and lorazepam (LOR) which was suspended in 0.5% of methylcellulose in water by sonication. All drugs and vehicles were administered orally (p.o.) by gavage in a volume of 10 mL/kg.
The mice were ordered 5 weeks old and at the beginning of experiment their weight was 20±5 g. Animals were housed in groups of four in plastic cages at an ambient temperature of 21° C. to 23° C. with an automated 12/12 hours light/dark cycle and access to water and a commercial rodent food ad libitum.
Each experiment consisted of seven treatment groups with four animals per group. A total of 28 animals per experiment were used. Every two consecutive experiments (1 & 2, 3 & 4, 5 & 6 and 7 & 8) were exact replicas of each other. […] One treatment group of four animals in each experiment was a vehicle treated group. In addition to the vehicle treated group, the effects of DMI at 6 mg/kg, 12 mg/kg, 30 mg/kg, 60 mg/kg and 120 mg/kg and LOR at 5 mg/kg were tested in experiments 1 and 2. […] In experiments 5 and 6 the effects of DLX at 6 mg/kg, 12 mg/kg, 30 mg/kg, 60 mg/kg, 120 mg/kg and LOR at 5 mg/kg were tested.

submissive rats = assay: Dominant-Submissive Relations (DSR) assay: Reduction of Submissive Behavior Model (RSBM) of depression; format: in vivo, rat
Procedure: (§2) The DSR assay is divided into two models: Reduction of Dominant Behavior Model (RDBM) of mania and Reduction of Submissive Behavior Model (RSBM) of depression. The RDBM, wherein the dominant animals are treated with test compound, is predictive of the ability of the test compound to treat mania. The RSBM, wherein the submissive animals are treated with test compound, is predictive of the ability of the test compound to treat depression.
(§3) Male Sprague Dawley rats (140 to 160 g) from Charles River Laboratories Wilmington, Mass. were used in this assay. Shipments of rats were received at two-week intervals. Each shipment went through five-day quarantine, one-week acclimation period, and one-week selection process, followed by five-weeks of drug or vehicle treatment to those pairs selected.
(§4) Rats were housed four per cage. Access to food was restricted to one hour per day after testing on Monday through Thursday. After testing on Friday, rats had free access to food until being fasted again on Sunday. At no time were the rats deprived of water. The food deprivation periods used had little effect on weight gain as the average weight of rats was about 300 g at the end of the study. At the conclusion of experiment rats were sacrificed by decapitation, the trunk blood and brains were collected for in vitro experiments and drug concentration measurements.
(§5) The basic testing apparatus consisted of two chambers connected with a tunnel only large enough to allow one rat to pass through at a time. On the floor, at the mid-point of the tunnel was a container of sweetened milk. This basic apparatus was replicated, so that a total of four pairs of rats can be video tracked simultaneously. The camera can distinguish rats marked by different colors. Thus, the rats' heads were colored for the purpose of video tracking, red in one cage and yellow in the other cage. Only one animal at a time can have comfortable access to the feeder, but both animals can drink milk during the five-minute daily session. During the five-minute daily sessions, time spent in the feeder zone by each rat was recorded by the video tracking software and saved into a text file.
The test began with a random assignment of rats into pairs. Each member of a pair was placed in an opposite chamber of the testing apparatus. The time spent in the feeder zone by each animal was recorded. During the first week (five days) of testing the animals habituate to the new environment. Dominance was assigned to the animal with the highest score during the second week of testing if three criteria were achieved. First, there must have been a significant difference (two-tailed t-test, P<0.05) between the average daily drinking scores of both animals. Second, the dominant animal score must have been at least 25% greater than the submissive animal's score. Finally, there must have been no “reversals” during the pair selection week where the putative submissive rat out-scored its dominant partner on isolated occasions. Ideally there were minimal reversals during the acclimation week as well. About twenty-five to thirty-three percent of the initial animal pairs achieved these criteria and only these pairs were continued in the study. […]
(§6) Significant differences between time spent on the feeder by dominant and submissive rats were determined by ANOVA using GraphPad Prism software (GraphPad Software, Inc. San Diego, Calif.) followed by a two-tailed t-test (P<0.05). Comparisons were made between treatment groups using normalized dominance level values in paired animals. The dominance level is a value that measures social relation between paired subjects. Dominance level (DL)=FTD−FTS where FTD is the feeder time of dominant rats and FTS is the feeder time of submissive rats. The normalization was conducted according to the formula: Dominance Level(week n in %)=(Dominance Level(week n))/(Dominance Level(week 2) […]

[1] = system: hippocampal kindled seizures; assay: Rat Hippocampal Kindling Test (Interruption of Kindled State); format: in vivo; details: reference drugs; suppression at doses associated with toxicity
Procedure: In the present rapid hippocampal kindling model adult male Sprague-Dawley rats (300-400 g) were surgically implanted with bipolar electrodes placed in the hippocampus. […] One week later, the rats received 2-3 supra-threshold stimulations delivered every 30 min before treatment with test compound, to ensure stability of the behavioral seizure stage and after-discharge duration. Fifteen minutes after the last stimulation, a single dose of vehicle or test compound was administered i.p. (intraperitoneally). After 15 min, each rat was then stimulated every 30 min for 3 to 4 h. After each stimulation, individual seizure scores and after-discharge durations were recorded. The group mean±SEM were calculated for each parameter. Eight rats per dose and a minimum of four doses were used to establish an ED50 value. Efficacy was measured as the ability of a compound to modify the seizure score (severity of spread) and after-discharge duration (ADD; excitability) of the generalized seizures.
Thus, according to the theories presented in current literature (Ghaemi, S. N., Boiman, E. E., and Goodwin, F. K., Soc. of Bio. Psychiatry, (1999), vol. 45, pp 137-144; Stoll, A. L., and Severus, W. E., Harvard Rev. Psychiatry, July/August (1996), Vol. 4, No. 2, pp 77-89) a decrease in seizure score and/or ADD may also be predictive of the ability of a test compound to treat the cycling associated with bipolar disorder.

dominant rats = assay: Dominant-Submissive Relations (DSR) assay: Reduction of Dominant Behavior Model (RDBM) of mania; format: in vivo, rat
Procedure: as §2, §3, §4, §5
The test began with a random assignment of rats into pairs. Each member of a pair was placed in an opposite chamber of the testing apparatus. The time spent in the feeder zone by each animal was recorded. During the first week (five days) of testing the animals habituate to the new environment. Dominance was assigned to the animal with the highest score during the second week of testing if three criteria were achieved. First, there must have been a significant difference (two-tailed t-test, P<0.05) between the average daily drinking scores of both animals. Second, the dominant animal score must have been at least 25% greater than the submissive animal's score. Finally, there must have been no “reversals” during the pair selection week where the putative submissive rat out-scored its dominant partner on isolated occasions. Ideally there were minimal reversals during the acclimation week as well. About twenty-five to thirty-three percent of the initial animal pairs achieved these criteria and only these pairs were continued in the study.
as §6

In the case of `CNCCCN1c2ccccc2CCc2ccccc21` [DMI, desipramine], the “Emax (immobility) in the FST” value (Sprague Dawley rats; p.o.) is reported as 50.0 ± 8.4 s, the “doses at which effect on immobility was statistically significant vs vehicle” value (Sprague Dawley rats; p.o.) is reported as 6 mg/kg, 12 mg/kg, 30 mg/kg, and 60 mg/kg and the “Immobility Emax % of C” value (CH3/HeJ mice) is reported as 38.5 % of C. For the same compound, the “Mobility Emax % of C” value (CH3/HeJ mice) was 195.7 % of C.

`CNCCC(Oc1ccc(C(F)(F)F)cc1)c1ccccc1` (stereo not shown) [fluoxetine, reference compound] was tested, and the “submissiveness during first week of treatment” value (submissive rats; fluoxetine 10 mg/kg i.p., Compound #8 treated groups p.o.) was “increased submissiveness during first week of treatment” and the “significant difference between dominant and submissive rats lost” value (submissive rats; submissive rats treated i.p. at 10.0 mg/kg) was “lost after third week of treatment”.

In the case of `CNCC[C@H](Oc1cccc2ccccc12)c1cccs1` [DLX, duloxetine], the ED50 (CH3/HeJ mice; read-out: Immobility ED50) is reported as 31.4 mg/kg, the ED50 (CH3/HeJ mice; read-out: Mobility ED50) is reported as 61.5 mg/kg and the “Immobility Emax % of C” value (CH3/HeJ mice) is reported as 80.4 % of C. For the same compound, the “Mobility Emax % of C” value (CH3/HeJ mice) was 175.5 % of C.

For `NC(=O)N1c2ccccc2C=Cc2ccccc21` [Carbamazepine], the “seizure activity in the hippocampal kindling model” value (“seizure activity” for short) [1] was “significantly suppressed seizure activity”.

In the case of `O=C1NC(=O)C(c2ccccc2)(c2ccccc2)N1` [Phenytoin], the “seizure activity” value [1] is reported as “significantly suppressed seizure activity”.

`CNCCCC12CCC(c3ccccc31)c1ccccc12` [maprotyline] was tested, and the “doses at which effect on immobility was statistically significant vs vehicle” value (Sprague Dawley rats; p.o.) was 30 mg/kg and 60 mg/kg.

`[Cl-].[Li+]` [lithium chloride, reference compound] was tested, and the “dominance level effect vs control” value (dominant rats; 100 mg/kg) was “significantly different from control only after the third week of treatment”.

`CCCC(CCC)C(=O)[O-].[Na+]` [sodium valproate, reference compound] was tested, and the dominance level (dominant rats; 30 mg/kg i.p. QD) was “decreased dominance level after the second week of treatment”, the “difference between dominant and submissive rats lost” value (dominant rats; dominant rats treated i.p. QD at 30 mg/kg) was “lost after first week of treatment” and the “permissiveness of the treated dominant rats” value (dominant rats; treated dominant rats permitted submissive partners to increase time on the feeder) was “observed to increase”.

`O=C1Nc2ccc(Cl)cc2C(c2ccccc2Cl)=NC1O` (stereo not shown) [Lorazepam, lorazepam] was tested, and the “effect on the rats' immobility time” value (Sprague Dawley rats; 1 mg/kg p.o., negative control) was “no significant effect”.

With `CCC1(C)CC(=O)NC1=O` (stereo not shown) [Ethosuximide] the “seizure activity” value [1] was “ineffective”.
